Experiments:
[1] = tested on: Myzus persicae; experiment: Myzus test (cabbage leaves dipped); format: in vivo; settings: single active compound, 1.6 ppm, cabbage leaves (Brassica oleracea) dipped
Protocol: (§1) To produce a suitable preparation of active compound, 1 part by weight of active compound is mixed with the stated amounts of solvent and emulsifier, and the concentrate is diluted with water to the desired concentrations.
Cabbage leaves (Brassica oleracea), which are heavily infested by the peach aphid (Myzus persicae) are treated by being dipped into the preparation of active compound of the desired concentration.
After the desired period of time, the kill in % is determined. 100% means that all animals have been killed; 0% means that none of the animals have been killed. The kill rates determined are calculated using Colby's formula.

[2] = tested on: Aphis gossypii; experiment: Aphis gossypii test (cotton leaves dipped); format: in vivo; settings: single active compound, 1.6 ppm, cotton leaves (Gossypium hirsutum) dipped
Protocol: as §1
Cotton leaves (Gossypium hirsutum), which are heavily infested by the cotton aphid (Aphis Gossypii) are treated by being dipped into the preparation of active compound of the desired concentration.
After the desired period of time, the kill in % is determined. 100% means that all aphids have been killed; 0% means that none of the aphids have been killed. The kill rates determined are calculated using Colby's formula.

SMILES	Kill rate in % after 6d [1]	Kill rate in % after 6d [2]
CC[S+]([O-])CCSP(=O)(OC)OC (centres unmarked) [oxydemeton-methyl]	0%	–
Cc1nc(N(C)C)nc(OC(=O)N(C)C)c1C [pirimicarb]	–	5%

Reference: patent US7060692B2, “Active ingredient combinations comprising insecticidal and acaricidal properties” (priority 2000, dated 2006)
